# Source: ChEMBL document CHEMBL5223190, “Discovery of Bis-sulfonamides as Novel Inhibitors of Mitochondrial NADH-Quinone Oxidoreductase (Complex I)” (ACS Med Chem Lett, 2023)
# The source made the active and inactive calls. No cut-off for these calls is given here.
# Biological target: not listed separately
# Assay: Inhibition of bovine heart NADH oxidase activity using submitochondrial particle as source of enzyme measured after 4 mins
# Type: mitochondria, Bos taurus, Mitochondria
# Conditions: not given
row,Compound,IC50 [nM]
1,COc1ccc(S(=O)(=O)N2CCC[C@H]2COCOC[C@@H]2CCCN2S(=O)(=O)c2ccc(OC)cc2)cc1,4400
2,Cc1ccc(S(=O)(=O)N2CCCC[C@H]2COCOC[C@@H]2CCCCN2S(=O)(=O)c2ccc(C)cc2)cc1,2600
3,CCCCCc1ccc(S(=O)(=O)N2CCC[C@H]2COCOC[C@@H]2CCCN2S(=O)(=O)c2ccc(CCCCC)cc2)cc1,150
4,Cc1ccc(S(=O)(=O)N2[C@H](COCOC[C@@H]3C[C@@H]4CCCC[C@@H]4N3S(=O)(=O)c3ccc(C)cc3)C[C@@H]3CCCC[C@@H]32)cc1,5800
5,Cc1ccc(S(=O)(=O)N2CCC[C@H]2COCOCc2ccccc2)cc1,4600
6,CCCCCCCCc1ccc(S(=O)(=O)N2CCC[C@H]2COCOC[C@@H]2CCCN2S(=O)(=O)c2ccc(CCCCCCCC)cc2)cc1,3400
7,Cc1ccc(S(=O)(=O)N2CCC[C@@H]2COCOC[C@@H]2CCCN2S(=O)(=O)c2ccc(C)cc2)cc1,810
8,COCOC[C@@H]1CCCN1S(=O)(=O)c1ccc(C)cc1,85000
9,CCCCCCCCCCS(=O)(=O)N1CCC[C@H]1COCOC[C@@H]1CCCN1S(=O)(=O)CCCOc1ccc(C)cc1,72
10,O=S(=O)(CCCOc1ccccc1)N1CCC[C@H]1COCOC[C@@H]1CCCN1S(=O)(=O)CCCOc1ccccc1,2400
11,CCCCCCCc1ccc(S(=O)(=O)N2CCC[C@H]2COCOC[C@@H]2CCCN2S(=O)(=O)c2ccc(CCCCCCC)cc2)cc1,3600
12,CCCCCCCCS(=O)(=O)N1CCC[C@H]1COCOC[C@@H]1CCCN1S(=O)(=O)CCCCCCCC,360
13,CC1(CCCCCCCCS(=O)(=O)N2CCC[C@H]2COCOC[C@@H]2CCCN2S(=O)(=O)CCCOc2ccc(I)cc2)N=N1,16
14,CCCCCCCCCCS(=O)(=O)N1CCC[C@H]1COCOC[C@@H]1CCCN1S(=O)(=O)CCCOc1ccccc1,150
15,CCCCc1ccc(S(=O)(=O)N2CCC[C@H]2COCOC[C@@H]2CCCN2S(=O)(=O)c2ccc(CCCC)cc2)cc1,140
16,Cc1ccc(S(=O)(=O)N2CCC[C@H]2CCOCOCC[C@@H]2CCCN2S(=O)(=O)c2ccc(C)cc2)cc1,620
17,Cc1ccc(S(=O)(=O)N2CCC[C@@H]2COCOC[C@H]2CCCN2S(=O)(=O)c2ccc(C)cc2)cc1,3100
18,Cc1ccc(S(=O)(=O)N2CC[C@@H](COCOC[C@@H]3CCN(S(=O)(=O)c4ccc(C)cc4)C3)C2)cc1,1300

row,Compound,IC50 [nM]
1,Cc1ccc(S(=O)(=O)N2CCC[C@H]2COCOC[C@@H]2CCCN2S(=O)(=O)c2ccc(C)cc2)cc1,890
2,CCCCCCc1ccc(S(=O)(=O)N2CCC[C@H]2COCOC[C@@H]2CCCN2S(=O)(=O)c2ccc(CCCCCC)cc2)cc1,98
3,O=S(=O)(CCCOc1ccc(I)cc1)N1CCC[C@H]1COCOC[C@@H]1CCCN1S(=O)(=O)CCCOc1ccc(I)cc1,14
4,Cc1ccc(S(=O)(=O)N2CC[C@H]2COCOC[C@@H]2CCN2S(=O)(=O)c2ccc(C)cc2)cc1,870
5,CCCCCCCCCCCCS(=O)(=O)N1CCC[C@H]1COCOC[C@@H]1CCCN1S(=O)(=O)CCCCCCCCCCCC,6500
6,CCCCCCOCCCS(=O)(=O)N1CCC[C@H]1COCOC[C@@H]1CCCN1S(=O)(=O)CCCOCCCCCC,260
7,Cc1ccc(S(=O)(=O)N(C)CCOCOCCN(C)S(=O)(=O)c2ccc(C)cc2)cc1,6400
8,CCCCCCCCCCS(=O)(=O)N1CCC[C@H]1COCOC[C@@H]1CCCN1S(=O)(=O)CCCOCCCCCC,48
9,Cc1ccc(S(=O)(=O)N2CCC[C@H]2COCOCCCc2ccccc2)cc1,1100
10,CCCCCCCCCCS(=O)(=O)N1CCC[C@H]1COCOC[C@@H]1CCCN1S(=O)(=O)CCCCCCCCCC,88
11,O=S(=O)(c1ccc(Cl)cc1)N1CCC[C@H]1COCOC[C@@H]1CCCN1S(=O)(=O)c1ccc(Cl)cc1,1100
12,Cc1ccc(C(=O)N2CCC[C@H]2COCOC[C@@H]2CCCN2C(=O)c2ccc(C)cc2)cc1,5000
13,Cc1ccc(OCCCS(=O)(=O)N2CCC[C@H]2COCOC[C@@H]2CCCN2S(=O)(=O)CCCOc2ccc(C)cc2)cc1,270
14,Cc1ccc(S(=O)(=O)N2CC[C@@H](OCO[C@@H]3CCN(S(=O)(=O)c4ccc(C)cc4)C3)C2)cc1,31000
15,Cc1ccc(S(=O)(=O)N2CCC[C@H]2CO)cc1,> 230000
16,CCCCCCCCCCS(=O)(=O)N1CCC[C@H]1COCOC[C@@H]1CCCN1S(=O)(=O)CCCOc1ccc(I)cc1,17
17,O=S(=O)(c1ccccc1)N1CCC[C@H]1COCOC[C@@H]1CCCN1S(=O)(=O)c1ccccc1,4100

# Biological target: not listed separately
# Assay: Inhibition of bovine heart succinate-cytochrome c oxidoreductase activity using submitochondrial particle as source of enzyme measured after 4 mins
# Type: mitochondria, Bos taurus, Mitochondria
# Conditions: not given
row,Compound,IC50 [nM]
1,O=S(=O)(CCCOc1ccc(I)cc1)N1CCC[C@H]1COCOC[C@@H]1CCCN1S(=O)(=O)CCCOc1ccc(I)cc1,> 20000
2,CCCCCCCCCCS(=O)(=O)N1CCC[C@H]1COCOC[C@@H]1CCCN1S(=O)(=O)CCCOc1ccc(I)cc1,> 20000

# Biological target: not listed separately
# Assay: Inhibition of bovine heart NADH-Q1 oxidoreductase (complex 1) oxidase activity using submitochondrial particle as source of enzyme measured after 4 mins
# Type: mitochondria, Bos taurus, Mitochondria
# Conditions: not given
row,Compound,IC50 [nM]
1,O=S(=O)(CCCOc1ccc(I)cc1)N1CCC[C@H]1COCOC[C@@H]1CCCN1S(=O)(=O)CCCOc1ccc(I)cc1,26
2,CCCCCCCCCCS(=O)(=O)N1CCC[C@H]1COCOC[C@@H]1CCCN1S(=O)(=O)CCCOc1ccc(I)cc1,40

# Species: Bos taurus
# Assay: Binding affinity to bovine heart NADH-Q1 oxidoreductase (complex 1) oxidase activity using submitochondrial particle as source of enzyme using [125I]-(S)-2-{[(tert-butyldiphenylsilyl)oxy]methyl}-1-{[3-(hexyloxy)propyl]sulfonyl}pyrrolidine by SDS-PAGE analysis
# Conditions: Mitochondria
row,Compound,Activity
1,O=S(=O)(CCCOc1ccc(I)cc1)N1CCC[C@H]1COCOC[C@@H]1CCCN1S(=O)(=O)CCCOc1ccc(I)cc1,Active
2,CCCCCCCCCCS(=O)(=O)N1CCC[C@H]1COCOC[C@@H]1CCCN1S(=O)(=O)CCCOc1ccc(I)cc1,Active
